Assay results reported in PubChem BioAssay AID1259411 (Chemical Carcinogenesis Research Information System (CCRIS), 2018).
Activity calls are given as the source filed them. How the calls were made is not given here.

Tested on: rodent carcinogenicity bioassays, tumor incidence
Assay: CCRIS carcinogenicity studies
In short: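 NCI-built, expert-reviewed records of carcinogenicity and related test outcomes (mutagenicity, tumor promotion/inhibition) compiled from published and report sources, historical span 1985-2011, not updated.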

SMILES: Cc1c[nH]c(=O)[nH]c1=O
- carcinogen call (Species: RAT, Strain/Sex: F344/MALE, Route: ORAL, Dose: 0, 1, 3% IN DIET FOR 36 WK (STUDY DURATION: 40 WK), Dose: 0, 1, 3% IN DIET FOR 36 WK (STUDY DURATION: 40 WK), Tumor Site: Type of Lesion: BLADDER: PAPILLOMA, CARCINOMA): active; positive

SMILES: O=[N+]([O-])c1ccc(/C=C/c2cnc(N(CO)CO)nn2)o1
- carcinogen call (Species: RAT, Strain/Sex: WISTAR/MALE, Route: ORAL, Dose: 0, 350, 1750, 3500 PPM IN POWDERED BASAL DIET (STUDY DURATION: 35 WK), Dose: 0, 350, 1750, 3500 PPM IN POWDERED BASAL DIET (STUDY DURATION: 35 WK), Tumor Site: Type of Lesion: FORESTOMACH, SQUAMOUS CELL PAPILLOMA, DUODENUM: ADENOCARCINOMA, SMALL INTESTINE: ADENOCARCINOMA, Tumor Site: Type of Lesion: FORESTOMACH, SQUAMOUS CELL PAPILLOMA, DUODENUM: ADENOCARCINOMA, SMALL INTESTINE: ADENOCARCINOMA): active; positive

SMILES: O=C(Nc1ccc([N+](=O)[O-])cc1Cl)c1cc(Cl)ccc1O
- carcinogen call (Species: MOUSE, Strain/Sex: B6C3F1/FEMALE, Route: ORAL, Dose: 0, 274, 549 PPM IN DIET FOR 78 WK (STUDY DURATION: 91-92 WK), Dose: 0, 274, 549 PPM IN DIET FOR 78 WK (STUDY DURATION: 91-92 WK)): inactive; negative
- carcinogen call (Species: RAT, Strain/Sex: OSBORNE-MENDEL/FEMALE, Route: ORAL, Dose: 0, 14216, 28433 PPM IN DIET FOR 78 WK (STUDY DURATION: 110-111 WK), Dose: 0, 14216, 28433 PPM IN DIET FOR 78 WK (STUDY DURATION: 110-111 WK), Tumor Site: Type of Lesion: MAMMARY GLAND: ADENOCARCINOMA, STOMACH: CARCINOMA): equivocal
- carcinogen call (Species: RAT, Strain/Sex: OSBORNE-MENDEL/MALE, Route: ORAL, Dose: 0, 14216, 28433 PPM IN DIET FOR 78 WK (STUDY DURATION: 110-111 WK), Dose: 0, 14216, 28433 PPM IN DIET FOR 78 WK (STUDY DURATION: 110-111 WK)): inactive; negative

SMILES: O=C1CCc2c1cc1c3c2ccc2cccc(c23)C1
- carcinogen call (Species: MOUSE, Strain/Sex: T.O./MALE, FEMALE, Route: DERMAL, Dose: 0, 50 UG IN TOLUENE SOLUTION 2 D/WK FOR 39 OR 50 WK (STUDY DURATION: 2 YR), Tumor Site: Type of Lesion: SKIN: PAPILLOMA OR CARCINOMA): active; positive

SMILES: O=C(O)CNCP(=O)(O)O
- carcinogen call (Species: RAT, Strain/Sex: WISTAR/FEMALE, Route: ORAL, Dose: 0, 300, 900, 2700 MG/L IN DRINKING WATER FOR 2 YR (STUDY DURATION: 2 YR), Dose: 0, 300, 900, 2700 MG/L IN DRINKING WATER FOR 2 YR (STUDY DURATION: 2 YR)): inactive; negative
- carcinogen call (Species: RAT, Strain/Sex: WISTAR/MALE, Route: ORAL, Dose: 0, 300, 900, 2700 MG/L IN DRINKING WATER FOR 2 YR (STUDY DURATION: 2 YR), Dose: 0, 300, 900, 2700 MG/L IN DRINKING WATER FOR 2 YR (STUDY DURATION: 2 YR)): inactive; negative
- carcinogen call (Species: Rat, Strain/Sex: Sprague-Dawley/Female (50/Group), Route: Oral, Dose: 0, 2000, 8000, 20,000 ppm of 96.5% glyphosate, isopropylamine salt in diet for 24 mo, study duration 24 mo, Dose: 0, 2000, 8000, 20,000 ppm of 96.5% glyphosate, isopropylamine salt in diet for 24 mo, study duration 24 mo, Tumor Site: Type of Lesion: Adrenal cortex: carcinoma (3/50 in high dose group vs 0 in all other groups)): active; positive. (department of pesticides regulation reviewer describes as a possible
- carcinogen call (Species: Rat, Strain/Sex: Sprague-Dawley/Male (50/Group), Route: Oral, Dose: 0, 2000, 8000, 20,000 ppm of 96.5% glyphosate, isopropylamine salt in diet for 24 mo, study duration 24 mo, Dose: 0, 2000, 8000, 20,000 ppm of 96.5% glyphosate, isopropylamine salt in diet for 24 mo, study duration 24 mo): inactive; negative

SMILES: CC(=O)OC/C=C(C)/C=C/C=C(C)/C=C/C1=C(C)CCCC1(C)C
- carcinogen call (Species: RAT, Strain/Sex: F344/FEMALE, Route: ORAL, Dose: 0, 0.125, 0.25% IN DRINKING WATER (TOTAL DOSE: 0; 50; 95 G/KG) FOR 104 WK (STUDY DURATION: 108 WK), Dose: 0, 0.125, 0.25% IN DRINKING WATER (TOTAL DOSE: 0; 50; 95 G/KG) FOR 104 WK (STUDY DURATION: 108 WK), Tumor Site: Type of Lesion: ADRENAL GLAND: MALIGNANT OR BENIGN PHEOCHROMOCYTOMA, BENIGN PHEOCHROMOCYTOMA, BILATERAL LESIONS, CLITORAL GLAND: ADENOMA): active; positive
- carcinogen call (Species: RAT, Strain/Sex: F344/MALE, Route: ORAL, Dose: 0, 0.125, 0.25% IN DRINKING WATER (TOTAL DOSE: 0; 50; 95 G/KG) FOR 104 WK (STUDY DURATION: 108 WK), Dose: 0, 0.125, 0.25% IN DRINKING WATER (TOTAL DOSE: 0; 50; 95 G/KG) FOR 104 WK (STUDY DURATION: 108 WK), Tumor Site: Type of Lesion: ADRENAL GLAND: MALIGNANT PHEOCHROMOCYTOMA, BENIGN PHEOCHROMOCYTOMA, BILATERAL LESIONS): active; positive

SMILES: C[C@](N)(Cc1ccc(O)c(O)c1)C(=O)O
- carcinogen call (Species: MOUSE, Strain/Sex: B6C3F1/FEMALE, Route: ORAL, Dose: 0, 6300, 12500 PPM IN FEED FOR 103 WK (STUDY DURATION: 104 WK), Dose: 0, 6300, 12500 PPM IN FEED FOR 103 WK (STUDY DURATION: 104 WK)): inactive; negative
- carcinogen call (Species: MOUSE, Strain/Sex: B6C3F1/MALE, Route: ORAL, Dose: 0, 6300, 12500 PPM IN FEED FOR 103 WK (STUDY DURATION: 104 WK), Dose: 0, 6300, 12500 PPM IN FEED FOR 103 WK (STUDY DURATION: 104 WK), Tumor Site: Type of Lesion: KIDNEY: RENAL TUBULAR CELL ADENOMA OR ADENOCARCINOMA): equivocal
- carcinogen call (Species: RAT, Strain/Sex: F344/FEMALE, Route: ORAL, Dose: 0, 3100, 6300 PPM IN FEED FOR 103 WK (STUDY DURATION: 104 WK), Dose: 0, 3100, 6300 PPM IN FEED FOR 103 WK (STUDY DURATION: 104 WK)): inactive; negative
- carcinogen call (Species: RAT, Strain/Sex: F344/MALE, Route: ORAL, Dose: 0, 3100, 6300 PPM IN FEED FOR 103 WK (STUDY DURATION: 104 WK), Dose: 0, 3100, 6300 PPM IN FEED FOR 103 WK (STUDY DURATION: 104 WK)): inactive; negative

SMILES: O=C(O)[C@@H]1[C@H](C(=O)O)[C@H]2CC[C@@H]1O2
- carcinogen call (Species: Mouse, Strain/Sex: Crl, CD-1(ICR)BR/Male and female (60/Group), Route: Oral, Dose: 0, 750, 1500 ppm of endothal disodium, purity 19-23.1%, in diet for at least 78 wk, study duration 18 mo, Dose: 0, 750, 1500 ppm of endothal disodium, purity 19-23.1%, in diet for at least 78 wk, study duration 18 mo, Tumor Site: Type of Lesion: Duodenum and jejunum: increased incidence of tumors in high dose group): active; positive (results not described separately for each sex)
- carcinogen call (Species: Rat, Strain/Sex: Cr, CD(SD)BR/Female (62/group), Route: Oral, Dose: Nominal concentrations of 0, 300, 900, 1800 ppm in diet for 104 wk, study duration 104 wk (actual concentration about 18, 300, 900, Tumor Site: Type of Lesion: Uterus: endometrial stromal tumors (0, 0, 4/60, 5/59)): active; positive (ca department of pesticide regulation evaluator described as a possibl
- carcinogen call (Species: Rat, Strain/Sex: Cr, CD(SD)BR/Male (62/group), Route: Oral, Dose: Nominal concentrations of 0, 300, 900, 1800 ppm in diet for 104 wk, study duration 104 wk (actual concentration about 18, 300, 900): inactive; negative

SMILES: CCCCCCCCCCCCCC(=O)ON(C(C)=O)c1ccc2c(c1)Cc1cc(I)ccc1-2
- carcinogen call (Species: RAT, Strain/Sex: F344/MALE, Route: SUBCUTANEOUS, Dose: 10.6 UMOL IN 0.2 ML DMSO-TRIOCTANOIN 1/WK FOR 6 WK, Tumor Site: Type of Lesion: INJECTION SITE: FIBROSARCOMA OR FIBROMYOSARCOMA OR FIBROLIPOSARCOMA): active; positive

SMILES: O=[N+]([O-])c1cc(N(CCO)CCO)ccc1NCCO
- carcinogen call (Species: MOUSE, Strain/Sex: B6C3F1/FEMALE, Route: ORAL, Dose: 0, 10000, 20000 PPM IN DIET FOR 104 WK, Dose: 0, 10000, 20000 PPM IN DIET FOR 104 WK): inactive; negative
- carcinogen call (Species: MOUSE, Strain/Sex: B6C3F1/MALE, Route: ORAL, Dose: 0, 5000, 10000 PPM IN DIET FOR 104 WK, Dose: 0, 5000, 10000 PPM IN DIET FOR 104 WK): inactive; negative
- carcinogen call (Species: RAT, Strain/Sex: F344/FEMALE, Route: ORAL, Dose: 0, 10000, 20000 PPM IN DIET FOR 103 WK, Dose: 0, 10000, 20000 PPM IN DIET FOR 103 WK): inactive; negative
- carcinogen call (Species: RAT, Strain/Sex: F344/MALE, Route: ORAL, Dose: 0, 5000, 10000 PPM IN DIET FOR 103 WK, Dose: 0, 5000, 10000 PPM IN DIET FOR 103 WK): inactive; negative
